Values joined by “and” are separate entries in the source; they are usually repeats but may differ in a detail not shown here. Identical values can stand only once. Inconclusive results and toxic doses are left out.
Tested on: P388 leukemia ip, CD2F1 mice, survival T/C
Test: NCI In Vivo Anticancer Drug Screen. Data for tumor model P388 Leukemia (intraperitoneal) in CD2F1 (CDF1) mice
Settings: endpoint: median survival time, higher = longer survival
Procedure, shortened: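 Mice carrying the transplanted tumor received test compound or vehicle. Survival was recorded in each group, and the value is the treated-group measurement divided by that of the vehicle-treated control group.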

[1] = dose: 50.0 mg/kg/injection, schedule: Q01DX009 (ip), vehicle: saline with Tween-80
[2] = dose: 100.0 mg/kg/injection, schedule: Q01DX009 (ip), vehicle: saline with Tween-80
[3] = dose: 12.5 mg/kg/injection, schedule: Q01DX005 (ip), vehicle: saline with Tween-80
[4] = dose: 25.0 mg/kg/injection, schedule: Q01DX005 (ip), vehicle: saline with Tween-80
[5] = dose: 50.0 mg/kg/injection, schedule: Q01DX005 (ip), vehicle: saline with Tween-80
[6] = dose: 12.5 mg/kg/injection, schedule: Q01DX009 (ip), vehicle: saline with Tween-80
[7] = dose: 25.0 mg/kg/injection, schedule: Q01DX009 (ip), vehicle: saline with Tween-80
[8] = dose: 60.0 mg/kg/injection, schedule: Q01DX005 (ip), vehicle: Klucel (hydroxypropylcellulose) (HPC)
[9] = dose: 120.0 mg/kg/injection, schedule: Q01DX005 (ip), vehicle: Klucel (hydroxypropylcellulose) (HPC)
[10] = dose: 240.0 mg/kg/injection, schedule: Q01DX005 (ip), vehicle: Klucel (hydroxypropylcellulose) (HPC)
[11] = dose: 200.0 mg/kg/injection, schedule: Q01DX009 (ip), vehicle: saline with Tween-80
[12] = dose: 100.0 mg/kg/injection, schedule: Q01DX001 (ip), vehicle: saline with Tween-80
[13] = dose: 200.0 mg/kg/injection, schedule: Q01DX001 (ip), vehicle: saline with Tween-80
[14] = dose: 400.0 mg/kg/injection, schedule: Q01DX001 (ip), vehicle: saline with Tween-80
[15] = dose: 50.0 mg/kg/injection, schedule: Q01DX009 (ip), vehicle: Klucel (hydroxypropylcellulose) (HPC)
[16] = dose: 100.0 mg/kg/injection, schedule: Q01DX009 (ip), vehicle: Klucel (hydroxypropylcellulose) (HPC)
[17] = dose: 200.0 mg/kg/injection, schedule: Q01DX009 (ip), vehicle: Klucel (hydroxypropylcellulose) (HPC)
[18] = dose: 30.0 mg/kg/injection, schedule: Q01DX005 (ip), vehicle: saline with Tween-80
[19] = dose: 60.0 mg/kg/injection, schedule: Q01DX005 (ip), vehicle: saline with Tween-80
[20] = dose: 25.0 mg/kg/injection, schedule: Q01DX009 (ip), vehicle: Klucel (hydroxypropylcellulose) (HPC)
[21] = dose: 120.0 mg/kg/injection, schedule: Q01DX005 (ip), vehicle: saline with Tween-80
[22] = dose: 240.0 mg/kg/injection, schedule: Q01DX005 (ip), vehicle: saline with Tween-80

## CC1(C)CC(OP(=S)(OC2CC(C)(C)N(O)C(C)(C)C2)N2CC2)CC(C)(C)N1O
dose: 50.0 mg/kg/injection, schedule: Q01DX009 (ip), vehicle: saline + alcohol
  T/C: 124 % of control
dose: 200.0 mg/kg/injection, schedule: Q01DX009 (ip), vehicle: saline + alcohol
  T/C: 168 % of control

## CCOC(=O)C(C#N)(CCC(=NC(C)(C)C)Nc1ccccc1C#N)CCC(=NC(C)(C)C)Nc1ccccc1C#N (configuration not stated)
[1]
  T/C: 100 % of control
[2]
  T/C: 94 % of control

## CCCCCCC1NC(CCCCCC)N2C(CCCCCC)N12 (configuration not stated)
dose: 100.0 mg/kg/injection, schedule: Q04DX003 (ip), vehicle: Klucel (hydroxypropylcellulose) (HPC)
  T/C: 101 % of control
dose: 200.0 mg/kg/injection, schedule: Q04DX003 (ip), vehicle: Klucel (hydroxypropylcellulose) (HPC)
  T/C: 97 % of control
dose: 400.0 mg/kg/injection, schedule: Q04DX003 (ip), vehicle: Klucel (hydroxypropylcellulose) (HPC)
  T/C: 93 % of control

## CCOc1ccc2nc3cc(N=Nc4ccc(N)nc4N)ccc3c(N)c2c1
[3]
  T/C: 106 % of control
[4]
  T/C: 113 % of control
[5]
  T/C: 104 % of control and 105 % of control

## CCCCCCCCCCCCCCCC[N+]1([O-])CCCC1
dose: 50.0 mg/kg/injection, schedule: Q01DX009 (ip), vehicle: saline
  T/C: 102 % of control

## Cc1cc(C)[n+](C)c2cc3ccccc3cc12
[3]
  T/C: 115 % of control
[5]
  T/C: 109 % of control

## COc1ccc2c(c1CCl)C(=O)OC2
[6]
  T/C: 96 % of control
[7]
  T/C: 111 % of control
[1]
  T/C: 101 % of control and 89 % of control

## CC(=O)Nc1ccc(C)c2ccccc12
dose: 75.0 mg/kg/injection, schedule: Q04DX003 (ip), vehicle: saline with Tween-80
  T/C: 100 % of control
dose: 150.0 mg/kg/injection, schedule: Q04DX003 (ip), vehicle: saline with Tween-80
  T/C: 104 % of control
dose: 300.0 mg/kg/injection, schedule: Q04DX003 (ip), vehicle: saline with Tween-80
  T/C: 108 % of control

## COc1ccc2c(c1)CCc1c(-c3noc4c3CCc3cc(OC)ccc3-4)noc1-2
dose: 60.0 mg/kg/injection, schedule: Q01DX005 (ip), vehicle: Klucel + Tween-80
  T/C: 92 % of control
dose: 120.0 mg/kg/injection, schedule: Q01DX005 (ip), vehicle: Klucel + Tween-80
  T/C: 96 % of control
dose: 240.0 mg/kg/injection, schedule: Q01DX005 (ip), vehicle: Klucel + Tween-80
  T/C: 100 % of control

## COc1cc2cc[n+]3c(c2cc1OC)-c1c2cc(OC)c(OC)cc2cc[n+]1CC3
[6]
  T/C: 100 % of control
[7]
  T/C: 97 % of control

## C1=Cc2cc(CN3CCOCC3)ccc2Nc2ccc(CN3CCOCC3)cc21
[8]
  T/C: 96 % of control
[9]
  T/C: 94 % of control
[10]
  T/C: 99 % of control

## C/C=C/Cc1nnc(C)c2c(C)[nH]nc12
[1]
  T/C: 100 % of control
[2]
  T/C: 96 % of control
[11]
  T/C: 102 % of control

## O=C(O)Cc1cn2cc(Br)cc(Br)c2n1
[12]
  T/C: 109 % of control
[13]
  T/C: 97 % of control
[14]
  T/C: 98 % of control

## CCN(CC)CCOC(=O)C1c2ccccc2-c2ccccc21
dose: 50.0 mg/kg/injection, schedule: Q01DX005 (ip), vehicle: saline + Tween-80 + alcohol
  T/C: 99 % of control
dose: 100.0 mg/kg/injection, schedule: Q01DX005 (ip), vehicle: saline + Tween-80 + alcohol
  T/C: 95 % of control
dose: 200.0 mg/kg/injection, schedule: Q01DX005 (ip), vehicle: saline + Tween-80 + alcohol
  T/C: 103 % of control

## CN(CCNN1CCCC1)Cc1ccccc1Cl
dose: 12.5 mg/kg/injection, schedule: Q01DX005 (ip), vehicle: saline
  T/C: 102 % of control
dose: 25.0 mg/kg/injection, schedule: Q01DX005 (ip), vehicle: saline
  T/C: 105 % of control
dose: 50.0 mg/kg/injection, schedule: Q01DX005 (ip), vehicle: saline
  T/C: 102 % of control and 108 % of control
dose: 100.0 mg/kg/injection, schedule: Q01DX005 (ip), vehicle: saline
  T/C: 103 % of control

## COc1cccc2c1C(=O)c1c(O)c3c(c(O)c1C2=O)C[C@@](O)(C(C)O)C[C@@H]3OC1CC(NCc2ccccc2)C(O)C(C)O1 (some centres not stated)
dose: 0.78 mg/kg/injection, schedule: Q01DX009 (ip), vehicle: water
  T/C: 158 % of control
dose: 1.56 mg/kg/injection, schedule: Q01DX009 (ip), vehicle: water
  T/C: 163 % of control
dose: 3.13 mg/kg/injection, schedule: Q01DX009 (ip), vehicle: water
  T/C: 181 % of control and 194 % of control
dose: 6.25 mg/kg/injection, schedule: Q01DX009 (ip), vehicle: water
  T/C: 215 % of control and 226 % of control

## N#CC1CCCC(CCc2ccccc2)(c2ccccc2)C1=O (configuration not stated)
[15]
  T/C: 101 % of control
[16]
  T/C: 104 % of control
[17]
  T/C: 98 % of control

## CCN(CC)CCCC(C)Nc1cc(C)nc2ccc(N(C)C)cc12 (configuration not stated)
dose: 15.0 mg/kg/injection, schedule: Q01DX005 (ip), vehicle: saline with Tween-80
  T/C: 108 % of control
[18]
  T/C: 105 % of control
[19]
  T/C: 100 % of control and 103 % of control

## OC1(O)/C=C\CCCCC/C=C\1
[4]
  T/C: 100 % of control
[5]
  T/C: 101 % of control
dose: 100.0 mg/kg/injection, schedule: Q01DX005 (ip), vehicle: saline with Tween-80
  T/C: 99 % of control and 102 % of control
dose: 200.0 mg/kg/injection, schedule: Q01DX005 (ip), vehicle: saline with Tween-80
  T/C: 105 % of control

## S=C1CC(c2ccc(Sc3ccccc3)cc2)=Nc2ccccc2N1
[20]
  T/C: 90 % of control
[15]
  T/C: 90 % of control
[16]
  T/C: 99 % of control and 87 % of control
[17]
  T/C: 100 % of control

## CC1(C)Cc2[nH]c3ccccc3c2C(C)(C)N1
[19]
  T/C: 105 % of control and 99 % of control
[21]
  T/C: 100 % of control
[22]
  T/C: 91 % of control

## O=P1(O)OC[C@H]2CCC[C@@H]2O1
dose: 60.0 mg/kg/injection, schedule: Q01DX005 (ip), vehicle: saline
  T/C: 106 % of control
dose: 120.0 mg/kg/injection, schedule: Q01DX005 (ip), vehicle: saline
  T/C: 97 % of control

## CC1CN(C(=O)Nc2ccc([N+](=O)[O-])cc2)CC(C)O1 (configuration not stated)
[1]
  T/C: 96 % of control
[2]
  T/C: 87 % of control
[11]
  T/C: 89 % of control

## CN1CC1c1cc2ccccc2c2ccccc12 (configuration not stated)
dose: 100.0 mg/kg/injection, schedule: Q01DX001 (ip), vehicle: suspension in saline
  T/C: 107 % of control
dose: 200.0 mg/kg/injection, schedule: Q01DX001 (ip), vehicle: suspension in saline
  T/C: 98 % of control
dose: 400.0 mg/kg/injection, schedule: Q01DX001 (ip), vehicle: suspension in saline
  T/C: 101 % of control

## COc1c(O)ccc([N+](=O)[O-])c1OC
dose: 12.5 mg/kg/injection, schedule: Q01DX009 (ip), vehicle: other
  T/C: 96 % of control
dose: 25.0 mg/kg/injection, schedule: Q01DX009 (ip), vehicle: other
  T/C: 98 % of control
dose: 50.0 mg/kg/injection, schedule: Q01DX009 (ip), vehicle: other
  T/C: 105 % of control
dose: 100.0 mg/kg/injection, schedule: Q01DX009 (ip), vehicle: other
  T/C: 102 % of control
dose: 200.0 mg/kg/injection, schedule: Q01DX009 (ip), vehicle: other
  T/C: 97 % of control

## COC1C2CC3C4(CCC5C6(C)CCCC53C(C14)N(C)C6)CC21CCC23C4C=C5C6=C(CCC5(CC42)C3O1)C1(C)CC(C6)CN(C)C1 (configuration not stated)
dose: 12.5 mg/kg/injection, schedule: Q01DX009 (ip), vehicle: Klucel (hydroxypropylcellulose) (HPC)
  T/C: 91 % of control
[20]
  T/C: 94 % of control
[15]
  T/C: 98 % of control

## C1CCC([Se][Se]C2CCCCC2)CC1
[15]
  T/C: 103 % of control
[16]
  T/C: 94 % of control

## O=C1[C@@H]2CCC[C@@H]2[C@H]2CCC[C@@H]12
[12]
  T/C: 95 % of control
[13]
  T/C: 102 % of control
[14]
  T/C: 89 % of control

## Cc1ncc(N)c2c1OC(C)(C)OC2
[3]
  T/C: 102 % of control
[4]
  T/C: 103 % of control
[5]
  T/C: 99 % of control and 101 % of control

## S=C(/N=N/c1[nH]c2ccccc2c1NNC(=S)NC12CC3CC(CC(C3)C1)C2)NC12CC3CC(CC(C3)C1)C2
[18]
  T/C: 96 % of control
[19]
  T/C: 96 % of control
[21]
  T/C: 87 % of control
[22]
  T/C: 90 % of control

## Cc1cc2c(cc1C)NC(=O)C(NC(=O)c1ccc(Cl)cc1)C=N2 (configuration not stated)
[8]
  T/C: 92 % of control
[9]
  T/C: 93 % of control
[10]
  T/C: 93 % of control

— PubChem BioAssay AID330 (DTP/NCI, 2004)
